This is an account of results in US20230374017A1, “COMPOSITIONS AND METHODS FOR ACTIVATING PYRUVATE KINASE” (The Regents of the University of Michigan, priority 2020, published 2023).

One data set addresses T1, human recombinant PKM2 (Homo sapiens, UniProt P14618).
T1 construct: purchased Sigma SAE0021
Nature of the data set: Pyruvate kinase activity enzyme assay, recombinant enzyme (LDH-coupled, NADH depletion at 340 nm). The settings on record: normalized to DMSO-treated PKM2 activity; for EC50: recombinant PKM2 20 nM; for Emax: recombinant PKM2, read-out: Max Activation. In kind it is biochemical. How it is done:
Pyruvate Kinase Activity Enzyme Assay. Recombinant Enzyme. A continuous, enzyme-coupled assay, which uses lactate dehydrogenase (LDH) and measures the depletion of NADH via absorbance at 340 nm was utilized to determine the pyruvate kinase activity. For AC50 measurements (concentration of activator necessary to achieve half-maximal activation) with ML-265, assays were performed in 96-well format using 200 μL/well assay volume with final concentrations of 20 nM human recombinant PKM2 (Sigma, SAE0021), differing concentrations of ML-265, 0.5 mM PEP, 1 mM ADP, 0.2 mM NADH, and 8 U of lactate dehydrogenase (LDH) in an assay buffer of 50 mM Tris-HCl (pH 7.4), 100 mM KCl, and 5 mM MgCl2. The decrease in absorbance at 340 nm was monitored using a SPECTROstar Omega plate reader (BMG LABTECH Inc., Cary, NC, USA). Initial velocities were calculated with the MARS software. Data were normalized to DMSO (dimethyl sulfoxide)-treated PKM2 activity.

The target in data set [1] is T2, pyruvate kinase activity, 661W cell line (Mus musculus, UniProt P52480).
T2 construct: endogenous in cells; host or cells: 661W cell line
In words: Pyruvate kinase activity in 661W cell lysates after 2 hours treatment. The settings on record: 661W cells, 2 hours incubation, activity normalized to total protein; for Emax: read-out: Max Activation (cell). The class given is cell-based. Here is the method:
Cell culture. For 661W cell line experiments, media was replaced prior to the start of treatment with DMSO or ML-265. Cells were incubated with DMSO or different concentrations of ML-265 for 2 hours. Cells were lysed and homogenized in RIPA Lysis and Extraction Buffer (Catalog number: 89900, Life Technologies Corporation, Grand Island, NY) with protease inhibitors (Complete-Mini, Roche Diagnostics, Indianapolis, IN) and cellular debris was removed by centrifugation at 10,000 rpm for 10 minutes. Ten microliters of the supernatant was used to assess pyruvate kinase activity, and the activity was normalized to total protein content as previously described.

The next data set deals with photoreceptors / retina. To be noted: cited from earlier work.

T1 sequence (P14618 whole entry): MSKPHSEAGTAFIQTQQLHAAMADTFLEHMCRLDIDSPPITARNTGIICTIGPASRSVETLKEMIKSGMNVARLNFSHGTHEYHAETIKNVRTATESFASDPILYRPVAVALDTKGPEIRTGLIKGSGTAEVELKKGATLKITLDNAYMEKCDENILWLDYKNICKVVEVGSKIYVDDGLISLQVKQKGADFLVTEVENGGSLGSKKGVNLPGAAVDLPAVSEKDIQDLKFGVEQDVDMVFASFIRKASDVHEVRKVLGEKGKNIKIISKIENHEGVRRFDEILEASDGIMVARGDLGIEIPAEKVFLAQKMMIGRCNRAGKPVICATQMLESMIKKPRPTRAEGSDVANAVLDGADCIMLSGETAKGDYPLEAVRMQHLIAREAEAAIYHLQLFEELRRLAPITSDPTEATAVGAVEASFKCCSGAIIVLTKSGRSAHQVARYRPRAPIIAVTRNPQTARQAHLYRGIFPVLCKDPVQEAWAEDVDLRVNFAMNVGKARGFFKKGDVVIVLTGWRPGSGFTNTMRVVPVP
T2 sequence (P52480 whole entry): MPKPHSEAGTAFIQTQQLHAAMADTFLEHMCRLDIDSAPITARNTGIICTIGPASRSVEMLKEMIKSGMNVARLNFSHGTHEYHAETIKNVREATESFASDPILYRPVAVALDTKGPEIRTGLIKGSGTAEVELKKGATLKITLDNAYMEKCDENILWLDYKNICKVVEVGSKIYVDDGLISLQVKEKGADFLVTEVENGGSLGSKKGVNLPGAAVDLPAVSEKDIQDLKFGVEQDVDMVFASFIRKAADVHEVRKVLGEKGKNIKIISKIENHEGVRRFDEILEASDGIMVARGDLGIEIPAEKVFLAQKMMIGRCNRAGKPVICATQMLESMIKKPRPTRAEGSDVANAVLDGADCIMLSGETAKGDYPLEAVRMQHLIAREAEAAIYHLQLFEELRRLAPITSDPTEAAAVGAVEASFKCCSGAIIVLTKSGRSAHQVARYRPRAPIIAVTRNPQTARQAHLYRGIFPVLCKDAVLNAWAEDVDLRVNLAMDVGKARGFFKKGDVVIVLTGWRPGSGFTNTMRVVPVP

In the case of `Cc1cccc(Cn2ncc3c4cc(Oc5ccc6[nH]ncc6n5)ccc4n(C)c3c2=O)n1` [Example 60, 8-((1H-pyrazolo[4,3-b]pyridin-5-yl)oxy)-5-methyl-3-((6-methylpyridin-2-yl)methyl)-3,5-dihydro-4H-pyridazino[4,5-b]indol-4-one], at human recombinant PKM2, the half-maximal effective concentration (EC50) (in general, the concentration that produces a half-maximal response) was found to be 67 nM and the Emax is 243%. In addition, in data set [1], the concentration for a half-maximal effect (EC50) turned out to be 54 nM and the Emax is 334%.

For the compound `Cc1cccc(Cn2ncc3c4ccc(Oc5ccc6[nH]ncc6n5)cc4n(C)c3c2=O)n1` [Example 62, 7-((1H-pyrazolo[4,3-b]pyridin-5-yl)oxy)-5-methyl-3-((6-methylpyridin-2-yl)methyl)-3,5-dihydro-4H-pyridazino[4,5-b]indol-4-one], at human recombinant PKM2, the concentration giving a half-maximal response (EC50) was 82 nM and the Emax is 221%. Moreover, in data set [1], the EC50 is 134 nM and the Emax is 376%.

For the compound `Cc1cccc(Cn2ncc3c4ccc(Oc5cccc(O)n5)cc4n(C)c3c2=O)n1` [Example 63, 7-((6-hydroxypyridin-2-yl)oxy)-5-methyl-3-((6-methylpyridin-2-yl)methyl)-3,5-dihydro-4H-pyridazino[4,5-b]indol-4-one], the results for the EC50 (on human recombinant PKM2; in data set [1]) were 31 nM and 78 nM, respectively. For the same compound, the Emax at human recombinant PKM2 came to 219%; in data set [1], 302%.

`Cc1cccc(Cn2ncc3c4ccc(Oc5nccc6[nH]ncc56)cc4n(C)c3c2=O)n1` [Example 64, 7-((1H-pyrazolo[4,3-c]pyridin-4-yl)oxy)-5-methyl-3-((6-methylpyridin-2-yl)methyl)-3,5-dihydro-4H-pyridazino[4,5-b]indol-4-one]: the 50% effective concentration (EC50) at human recombinant PKM2 was 69 nM; in data set [1] it was 73 nM. The Emax at human recombinant PKM2 was determined as 165%; in data set [1] it was 272%.

For the compound `Cc1cccc(Cn2ncc3c4ccc(Oc5ncnc6[nH]ncc56)cc4n(C)c3c2=O)n1` [Example 65, 7-((1H-pyrazolo[3,4-d]pyrimidin-4-yl)oxy)-5-methyl-3-((6-methylpyridin-2-yl)methyl)-3,5-dihydro-4H-pyridazino[4,5-b]indol-4-one], at human recombinant PKM2, the EC50 was found to be 43 nM and the Emax came out at 191%. In addition, in data set [1], the 50% effective concentration (EC50) stood at 115 nM and the Emax worked out at 262%.

Regarding `Cc1cccc(Cn2ncc3c4ccc(Oc5cccc(F)n5)cc4n(C)c3c2=O)n1` [Example 66, 7-((6-fluoropyridin-2-yl)oxy)-5-methyl-3-((6-methylpyridin-2-yl)methyl)-3,5-dihydro-4H-pyridazino[4,5-b]indol-4-one], the EC50 at human recombinant PKM2 is 36 nM; in data set [1], 121 nM. In addition, the values for the Emax (on human recombinant PKM2; in data set [1]) were 154% and 323%, respectively.

`Cc1cccc(Cn2ncc3c4ccc(Oc5cccc(Cl)n5)cc4n(C)c3c2=O)n1` [Example 67, 7-((6-chloropyridin-2-yl)oxy)-5-methyl-3-((6-methylpyridin-2-yl)methyl)-3,5-dihydro-4H-pyridazino[4,5-b]indol-4-one]: the EC50 on human recombinant PKM2 turned out to be 49 nM; in data set [1], 147 nM. For the same compound, the Emax at human recombinant PKM2 stood at 277%; in data set [1] it was 290%.

`Cn1c2cc(Oc3ccc4[nH]ncc4n3)ccc2c2cnn(Cc3ccccc3F)c(=O)c21` [Example 70, 7-((1H-pyrazolo[4,3-b]pyridin-5-yl)oxy)-3-(2-fluorobenzyl)-5-methyl-3,5-dihydro-4H-pyridazino[4,5-b]indol-4-one]: at human recombinant PKM2, the EC50 was found to be 82 nM and the Emax amounted to 191%. In data set [1], the half-maximal effective concentration (EC50) was determined as 162 nM and the Emax worked out at 210%.

In the case of `Cn1c2cc(Oc3nccc4[nH]ncc34)ccc2c2cnn(Cc3ccccc3F)c(=O)c21` [Example 71, 7-((1H-pyrazolo[4,3-c]pyridin-4-yl)oxy)-3-(2-fluorobenzyl)-5-methyl-3,5-dihydro-4H-pyridazino[4,5-b]indol-4-one], on human recombinant PKM2, the EC50 turned out to be 28 nM and the Emax turned out to be 165%. Further, in data set [1], a half-maximal effect (EC50) was put at 69 nM and the Emax came out at 278%.

`Cn1c2cc(Oc3cccc(O)n3)ccc2c2cnn(Cc3ccccc3F)c(=O)c21` [Example 72, 3-(2-fluorobenzyl)-7-((6-hydroxypyridin-2-yl)oxy)-5-methyl-3,5-dihydro-4H-pyridazino [4,5-b]indol-4-one]: at human recombinant PKM2, the EC50 is 55 nM and the Emax was 206%. For the same compound, in data set [1], the concentration for a half-maximal effect (EC50) came out at 72 nM and the Emax amounted to 222%.

Take `Cn1c2cc(Oc3ncnc4[nH]ncc34)ccc2c2cnn(Cc3ccccc3F)c(=O)c21` [Example 73, 7-((1H-pyrazolo[3,4-d]pyrimidin-4-yl)oxy)-3-(2-fluorobenzyl)-5-methyl-3,5-dihydro-4H-pyridazino[4,5-b]indol-4-one]: at human recombinant PKM2, the EC50 was found to be 22 nM and the Emax is 232%. Also, in data set [1], the response was half-maximal at 104 nM (EC50) and the Emax stood at 189%.

Turning to `Cn1c2cc(Oc3cccc(F)n3)ccc2c2cnn(Cc3ccccc3F)c(=O)c21` [Example 74, 3-(2-fluorobenzyl)-7-((6-fluoropyridin-2-yl)oxy)-5-methyl-3,5-dihydro-4H-pyridazino[4,5-b]indol-4-one], the values for the EC50 (at human recombinant PKM2; in data set [1]) were 62 nM and 81 nM, respectively. For the same compound, the Emax was found to be 234% on human recombinant PKM2 and 370% in data set [1].

Consider `Cn1c2cc(Oc3cccc(Cl)n3)ccc2c2cnn(Cc3cccc(N)c3)c(=O)c21` [Example 78, 3-(3-aminobenzyl)-7-((6-chloropyridin-2-yl)oxy)-5-methyl-3,5-dihydro-4H-pyridazino[4,5-b]indol-4-one], for which the 50% effective concentration (EC50) was 35 nM at human recombinant PKM2 and 47 nM in data set [1]. For the same compound, the Emax at human recombinant PKM2 was determined as 195%; in data set [1], 247%.

For `Cn1c2cc(Oc3cccc(N)c3)ccc2c2cnn(Cc3cccc(N)c3)c(=O)c21` [Example 80, 3-(3-aminobenzyl)-7-(3-aminophenoxy)-5-methyl-3,5-dihydro-4H-pyridazino[4,5-b]indol-4-one], the concentration for a half-maximal effect (EC50) at human recombinant PKM2 was determined as 45 nM; in data set [1] it was 235 nM. For the same compound, the Emax was found to be 286% on human recombinant PKM2 and 325% in data set [1].

`Cn1ncc2c3ccc(Oc4cccc(Cl)n4)cc3n(C)c2c1=O` [Example 81, 7-((6-chloropyridin-2-yl)oxy)-3,5-dimethyl-3,5-dihydro-4H-pyridazino[4,5-b]indol-4-one]: on human recombinant PKM2, the EC50 amounted to 49 nM and the Emax worked out at 336%. In data set [1], a half-maximal effect (EC50) was put at 259 nM and the Emax turned out to be 259%.

For the compound `Cn1c2cc(Oc3cccc(F)n3)ccc2c2cnn(Cc3cccc4[nH]ncc34)c(=O)c21` [Example 85, 3-((1H-indazol-4-yl)methyl)-7-((6-fluoropyridin-2-yl)oxy)-5-methyl-3,5-dihydro-4H-pyridazino[4,5-b]indol-4-one], the EC50 at human recombinant PKM2 amounted to 63 nM; in data set [1], 76 nM. The Emax turned out to be 330% at human recombinant PKM2 and 315% in data set [1].

On to `Cn1c2cc(Oc3cccc(F)n3)ccc2c2cnn(Cc3cc[nH]n3)c(=O)c21` [Example 86, 3-((1H-pyrazol-3-yl)methyl)-7-((6-fluoropyridin-2-yl)oxy)-5-methyl-3,5-dihydro-4H-pyridazino[4,5-b]indol-4-one], for which, on human recombinant PKM2, the EC50 came out at 63 nM and the Emax is 195%. For the same compound, in data set [1], the EC50 amounted to 172 nM and the Emax is 352%.

For `COc1cccc(Cn2ncc3c4ccc(Oc5cccc(F)n5)cc4n(C)c3c2=O)c1` [Example 90, 7-((6-fluoropyridin-2-yl)oxy)-3-(3-methoxybenzyl)-5-methyl-3,5-dihydro-4H-pyridazino[4,5-b]indol-4-one], on human recombinant PKM2, the 50% effective concentration (EC50) was 72 nM and the Emax was determined as 218%. Also, in data set [1], it took 60 nM to reach a half-maximal effect (EC50) and the Emax stood at 202%.

Take `Cn1c2cc([S+](C)[O-])sc2c2cnn(Cc3cccc(N)c3)c(=O)c21` (centres unmarked) [ML-265]: the “toxic effects on the retina” value with photoreceptors / retina (long-term) was “without any toxic effects on the retina long-term”. Further, the photoreceptor apoptosis entry in the data set with photoreceptors / retina (small molecule activation of PKM2, models of outer retinal stress) is reported as “circumvents photoreceptor apoptosis”.
